Experiments:
Kuramochi cells = test: BrdU cell proliferation assay; format: cell-based; details: 96 h, developed on day 4, read-out: BrdU - KURAMOCHI.1: IC50
Protocol: A BrdU assay was used as a measure of proliferation based on the DNA replication process of proliferating cells. BrdU, a pyrimidine analog, is added to the cell culture and incorporated into the DNA of proliferating cells. The presence of the BrdU analog was then measured through a colorimetric ELISA. After fixation and permeabilization of cells, peroxidase-conjugated antibody recognizing BrdU is added and allowed to incubate, followed by thorough washing to remove unbound antibody. In order to quantify the amount of bound antibody, peroxidase substrate is added and produces a color that can be measured at 450 nm.
On day −1, Kuramochi cells (Sekisui XenoTech JCRB0098) were seeded at 2,000 cells/well in columns 2-12 of a 96 well plate (Corning, CLS3596) in 150 uL media and allowed to adhere overnight at 37 degree with 5% CO2. In order to assess specificity of the compounds, Kuramochi RB^KO cells were also plated and treated, as RB^KO cells were not expected to show a proliferative response to CCNE/CDK specific inhibitors.
On day 0, the source plate was prepared by adding 10 mM compounds and performing 3-fold serial dilutions for a 4-point dose response of each compound. Using a multichannel pipette, 2 μL of the contents of the source plate were stamped into an intermediate plate with 500 μL of RPMI 1640 Media, GlutaMAX Supplement (Life Technologies. 61870127) in each well of a Nunc 96 DeepWell™ plate, non-treated 96 DeepWell plate, 2 mL/well, sterile, natural. 60/cs (Sigma Z717274) and mixed thoroughly. 50 uL from row A of this intermediate plate were added to rows A-H of one plate of previously seeded Kuramochi cells, and each subsequent row of the intermediate plate was added to a full plate of cells.
On day 4, the plates were developed using the BrdU ELISA Cell Proliferation Assay according to manufacturer's instructions (Roche, 11647229001). Briefly, BrdU was diluted 1:100 in Gibco®. Opti-MEM® and 20 μL/well was added, shaken for 10 minutes at 350 rpm, and then returned to the incubator for 1 hour. Following incubation, the medium was discarded, and the cells were fixed by adding 200 μL of Fix/Denature solution. The anti-BrdU peroxidase antibody was diluted 1:1000 in OptiMEM, added at 100 μL/well, and incubated while shaking (350 rpm) for one hour. Three washes with PBS were performed to remove any unbound antibody, followed by the addition of 100 μL of substrate solution to each well. […] was then added to halt the reaction, and plates were read out using an Envision spectrophotometer (Perkin Elmer) set to read 450 nm absorbance. Background absorbance values from empty wells were subtracted from all samples and then normalized to DMSO treated wells.

CDK2/Cyclin E1 = CDK2/Cyclin E1 (Homo sapiens (Human), UniProt P24941); test: Caliper LabChip EZ Reader mobility shift assay; format: biochemical; details: 2.5 nM CDK2/Cyclin E1 (14-475), 100 μM ATP, 1.5 μM fluorescent peptide; read-out: Caliper Assay (CDK2/CCNE1): IC50
Protocol: Inhibition of CDK2/Cyclin E1 activity in the presence of compounds of the present disclosure was evaluated using a Caliper LabChip® EZ Reader mobility shift assay. In the assay, activated CDK2/Cyclin E1 catalyzes the phosphorylation of a fluorescently tagged peptide 5-FAM-QSPKKG-CONH2 (PerkinElmer, FL Peptide 18) which induces a difference in capillary electrophoresis mobility. The peptide substrate and product were measured, and the conversion ratio was used to determine the inhibition (as % activity and IC50 values) of CDK2/Cyclin E1. Reactions contained 50 mM HEPES pH 7.5, 10 mM MgCl2, 1 mM EDTA, 2 mM DTT, 0.01% Brij35, 0.5 mg/mL BSA, 0.1% DMSO, 2.5 nM CDK2/Cyclin E1 (14-475), 100 μM ATP, and 1.5 μM fluorescent peptide substrate.
Dose titrations of inhibitors in 100% DMSO were combined with 3.25 nM CDK2/Cyclin E1 (14-475) and 130 μM of ATP in reaction buffer. The mixtures were incubated for 30 minutes before the addition of fluorescent peptide substrate to initiate the kinase reaction. The final conditions were 2.5 nM CDK2/Cyclin E1 (14-475), 100 μM ATP, and 1.5 μM fluorescent peptide. The reactions were stopped after 100 minutes with the addition of EDTA (6 mM final EDTA concentration). The stopped reactions were analyzed on a Caliper LabChip® EZ Reader II. The conversion ratios were normalized to yield % activity, plotted against compound concentration, and fit to a four-parameter equation to determine the IC50 for each compound.

[1] = tested on: Kuramochi cells labeled with mApple-H2B; test: IncuCyte cell proliferation assay; format: cell-based; details: Kuramochi RB-WT, cell count 0 to 72 hours; method calls it GI50
Protocol: IncuCyte® assay was used to measure the effect of disclosed compounds on cell proliferation. Fluorescent microscopy images of cells were taken immediately after compound treatment and 72 hours later. Image analysis software was used to obtain cell counts as a function of compound concentration. Kuramochi cells labeled with mApple-H2B were seeded on 384-well assay-ready plates. Plates were placed in an IncuCyte® (Sartorius) and scanned at 0 and 72 hours. IncuCyte® software was used to count the number of fluorescent nuclei in each well. The fold change in cell count from 0 to 72 hours in wells treated with increasing compounds concentrations (10 pts, 1/2 log dilution, 20 μM top concentration) was normalized to DMSO control wells. The normalized cell counts were fit with dose response curves and a GI50 was calculated.

SMILES	IC50 (CDK2/Cyclin E1)	IC50 (Kuramochi cells)	IC50 [1]
CNC(=O)[C@@H](NC(=O)[C@@H]1CN(C(=O)c2cnn(Cc3ccccc3)c2)CC12CN(c1nnn[nH]1)C2)[C@@H](C)OCC1CCCCC1 [Compound I-1, (S)-6-(1-Benzyl-1H-pyrazole-4-carbonyl)-N-((2S,3R)-3-(cyclohexylmethoxy)-1-(methylamino)-1-oxobutan-2-yl)-2-(1H-tetrazol-5-yl)-2,6-diazaspiro[3.4]octane-8-carboxamide]	> 10 µM	> 10 µM	> 20 µM
C[C@@H](OCC1CCCCC1)[C@H](NC(=O)[C@@H]1CN(c2nccc3cn[nH]c23)CC12CN(C(=O)[C@H]1CC1(C)C)C2)C(=O)N1CCCCC1 [Compound I-12, (S)-N-((2S,3R)-3-(cyclohexylmethoxy)-1-oxo-1-(piperidin-1-yl)butan-2-yl)-2-((S)-2,2-dimethylcyclopropane-1-carbonyl)-6-(1H-pyrazolo[3,4-c]pyridin-7-yl)-2,6-diazaspiro[3.4]octane-8-carboxamide 2,2,2-trifluoroacetate]	> 10 µM	> 10 µM	
C[C@@H](OCC1CCC(F)(F)CC1)[C@H](NC(=O)[C@@H]1CN(C(=O)c2cncs2)CC12CN(c1ncco1)C2)C(C)(C)O [Compound I-4, (S)-N-((3S,4R)-4-((4,4-difluorocyclohexyl)methoxy)-2-hydroxy-2-methylpentan-3-yl)-2-(oxazol-2-yl)-6-(thiazole-5-carbonyl)-2,6-diazaspiro[3.4]octane-8-carboxamide]	1 to 10 µM	> 10 µM	> 20 µM
C[C@@H](OCC1CCCCC1)[C@H](NC(=O)[C@@H]1CN(c2cccc3[nH]ccc23)CC12CN(C(=O)[C@H]1CC1(C)C)C2)C(=O)N1CCCCC1 [Compound I-14, (S)-N-((2S,3R)-3-(cyclohexylmethoxy)-1-oxo-1-(piperidin-1-yl)butan-2-yl)-2-((S)-2,2-dimethylcyclopropanecarbonyl)-6-(1H-indol-4-yl)-2,6-diazaspiro[3.4]octane-8-carboxamide]	> 10 µM	> 10 µM	0.5 to 5 µM
COC[C@H]1CCCN(C(=O)C(NC(=O)[C@@H]2CN(c3nc(C(F)(F)F)cs3)CC23CN(C(=O)[C@H]2CC2(C)C)C3)[C@@H](C)OCC23CCC(CC2)OC3)C1 (stereo in doubt) [Compound I-17, (S)-N-((2S,3R)-3-(2-oxabicyclo[2.2.2]octan-4-ylmethoxy)-1-((S)-3-(methoxymethyl)piperidin-1-yl)-1-oxobutan-2-yl)-2-((S)-2,2-dimethylcyclopropanecarbonyl)-6-(4-(trifluoromethyl)thiazol-2-yl)-2,6-diazaspiro[3.4]octane-8-carboxamide]	> 10 µM		> 20 µM
C[C@@H](OCC1CCCCC1)[C@H](NC(=O)[C@@H]1CN(c2cccc3cn[nH]c23)CC12CN(C(=O)[C@H]1CC1(C)C)C2)C(=O)N1CCCCC1 [Compound I-11, (S)-N-((2S,3R)-3-(cyclohexylmethoxy)-1-oxo-1-(piperidin-1-yl)butan-2-yl)-2-((S)-2,2-dimethylcyclopropanecarbonyl)-6-(1H-indazol-7-yl)-2,6-diazaspiro[3.4]octane-8-carboxamide]		0.5 to 5 µM	0.5 to 5 µM

More lines, main results first:

IC50 (CDK2/Cyclin E1)	SMILES	IC50 (Kuramochi cells)	IC50 [1]
0.1 to 1 µM	CNC(=O)[C@@H](NC(=O)[C@@H]1CN(C(=O)c2cnn(Cc3ccccc3)c2)CC12CN(c1ncco1)C2)[C@@H](C)OCC1CCCCC1 [Compound I-2, (S)-6-(1-benzyl-1H-pyrazole-4-carbonyl)-N-((2S,3R)-3-(cyclohexylmethoxy)-1-(methylamino)-1-oxobutan-2-yl)-2-(oxazol-2-yl)-2,6-diazaspiro[3.4]octane-8-carboxamide]	> 10 µM	> 20 µM
0.01 to 0.1 µM	C[C@@H](OCC1(CO)CC=CCC1)[C@H](NC(=O)[C@@H]1CN(c2ncnc3ncsc23)CC12CN(C(=O)[C@H]1CC1(C)C)C2)C(=O)N1CCC(C(F)(F)F)CC1 (stereo partly drawn) [Compound I-36, (8S)-2-((S)-2,2-dimethylcyclopropane-1-carbonyl)-N-((2S,3R)-3-((1-(hydroxymethyl)cyclohex-3-en-1-yl)methoxy)-1-oxo-1-(4-(trifluoromethyl)piperidin-1-yl)butan-2-yl)-6-(thiazolo[4,5-d]pyrimidin-7-yl)-2,6-diazaspiro[3.4]octane-8-carboxamide]		> 20 µM
0.1 to 1 µM	COC[C@H]1CCCN(C(=O)[C@@H](NC(=O)[C@@H]2CN(c3cc(O)cc4ncsc34)CC23CN(C(=O)[C@H]2CC2(C)C)C3)[C@@H](C)OCC23CCC(CC2)OC3)C1 [Compound I-20, (S)-N-((2S,3R)-3-(2-oxabicyclo[2.2.2]octan-4-ylmethoxy)-1-((S)-3-(methoxymethyl)piperidin-1-yl)-1-oxobutan-2-yl)-2-((S)-2,2-dimethylcyclopropanecarbonyl)-6-(5-hydroxybenzo[d]thiazol-7-yl)-2,6-diazaspiro[3.4]octane-8-carboxamide]		5 to 20 µM
0.01 to 0.1 µM	C[C@@H](OCC12CCC(CC1)OC2)C(NC(=O)[C@@H]1CN(c2ncnc3ncsc23)CC12CN(C(=O)[C@H]1CC1(C)C)C2)C(=O)N1CCC(C(F)(F)F)CC1 (stereo partly drawn) [Compound I-30, (S)-N-((2S,3R)-3-((2-oxabicyclo[2.2.2]octan-4-yl)methoxy)-1-oxo-1-(4-(trifluoromethyl)piperidin-1-yl)butan-2-yl)-2-((S)-2,2-dimethylcyclopropane-1-carbonyl)-6-(thiazolo[4,5-d]pyrimidin-7-yl)-2,6-diazaspiro[3.4]octane-8-carboxamide]		0.5 to 5 µM
0.01 to 0.1 µM	C[C@@H](OCC1(CO)CC=CCC1)C(NC(=O)[C@@H]1CN(c2ncnc3ncsc23)CC12CN(C(=O)[C@H]1CC1(C)C)C2)C(=O)N1CCC(OC(F)(F)F)CC1 (stereo partly drawn) [Compound I-35, (8S)-2-((S)-2,2-dimethylcyclopropane-1-carbonyl)-N-((2S,3R)-3-((1-(hydroxymethyl)cyclohex-3-en-1-yl)methoxy)-1-oxo-1-(4-(trifluoromethoxy)piperidin-1-yl)butan-2-yl)-6-(thiazolo[4,5-d]pyrimidin-7-yl)-2,6-diazaspiro[3.4]octane-8-carboxamide]		> 20 µM
0.1 to 1 µM	C[C@@H](OCC1(CO)CC=CCC1)[C@H](NC(=O)[C@@H]1CN(c2ncnc3ncsc23)CC12CN(C(=O)[C@H]1CC1(C)C)C2)C(=O)N1CC2(CCOCC2)C1 (stereo partly drawn) [Compound I-37, (8S)-2-((S)-2,2-dimethylcyclopropane-1-carbonyl)-N-((2S,3R)-3-((1-(hydroxymethyl)cyclohex-3-en-1-yl)methoxy)-1-oxo-1-(7-oxa-2-azaspiro[3.5]nonan-2-yl)butan-2-yl)-6-(thiazolo[4,5-d]pyrimidin-7-yl)-2,6-diazaspiro[3.4]octane-8-carboxamide]		> 20 µM

From patent US20260014146A1, “CDK2 INHIBITORS AND METHODS OF USING THE SAME” (Cedilla Therapeutics, Inc., priority 2022, published 2026)
